Source: publication PMC5446775, “Interactions of 172 plant extracts with human organic anion transporter 1 (SLC22A6) and 3 (SLC22A8): a study on herb-drug interactions” (PeerJ, 2017)
Where “and” joins values, the source holds several entries; their conditions need not be identical. Equal values may be shown once. One block for each molecule: values may come before it.

How the values were obtained:
HEK-EV cells = test: Time course of 6-CF uptake in HEK-EV cells; format: cell-based; set-up: unit not given beside the values
hOAT1 = target: T1, hOAT1 (Homo sapiens, UniProt Q4U2R8); test: Time course and uptake kinetics of 6-CF in HEK-OAT1 cells
T1 sequence (Q4U2R8 1-563): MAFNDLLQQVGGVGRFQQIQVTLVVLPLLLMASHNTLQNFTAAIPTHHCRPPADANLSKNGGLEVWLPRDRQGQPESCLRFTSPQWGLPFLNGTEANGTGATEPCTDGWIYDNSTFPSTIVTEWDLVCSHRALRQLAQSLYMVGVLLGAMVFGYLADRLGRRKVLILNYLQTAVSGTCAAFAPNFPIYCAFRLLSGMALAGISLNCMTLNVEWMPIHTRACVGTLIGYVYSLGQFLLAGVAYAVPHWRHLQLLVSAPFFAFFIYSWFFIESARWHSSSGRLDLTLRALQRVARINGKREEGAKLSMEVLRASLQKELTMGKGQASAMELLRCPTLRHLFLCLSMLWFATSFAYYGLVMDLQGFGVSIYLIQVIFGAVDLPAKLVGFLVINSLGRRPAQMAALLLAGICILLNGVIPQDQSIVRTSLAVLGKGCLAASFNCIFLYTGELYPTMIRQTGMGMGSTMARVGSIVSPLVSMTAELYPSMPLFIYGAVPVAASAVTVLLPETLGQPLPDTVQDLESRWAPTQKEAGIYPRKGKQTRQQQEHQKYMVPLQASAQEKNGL

hOAT3 = target: T2, hOAT3 (Homo sapiens, UniProt Q8TCC7); test: Time course and uptake kinetics of 6-CF in HEK-OAT3 cells
T2 sequence (Q8TCC7 1-542): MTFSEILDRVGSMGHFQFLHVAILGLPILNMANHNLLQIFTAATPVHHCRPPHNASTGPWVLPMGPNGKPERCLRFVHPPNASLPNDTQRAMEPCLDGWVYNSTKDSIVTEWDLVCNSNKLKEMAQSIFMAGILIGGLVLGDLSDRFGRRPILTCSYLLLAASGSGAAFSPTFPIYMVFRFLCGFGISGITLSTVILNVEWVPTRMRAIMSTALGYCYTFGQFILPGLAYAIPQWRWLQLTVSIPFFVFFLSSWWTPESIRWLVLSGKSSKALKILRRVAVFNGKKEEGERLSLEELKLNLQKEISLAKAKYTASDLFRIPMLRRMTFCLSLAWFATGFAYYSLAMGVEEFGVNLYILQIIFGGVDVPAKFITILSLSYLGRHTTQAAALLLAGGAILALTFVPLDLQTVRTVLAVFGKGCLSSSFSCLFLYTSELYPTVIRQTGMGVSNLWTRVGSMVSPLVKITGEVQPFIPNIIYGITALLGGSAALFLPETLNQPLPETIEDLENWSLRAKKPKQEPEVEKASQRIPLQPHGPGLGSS

[1] = substrate: O=C(O)c1ccc(C(=O)O)c(-c2c3ccc(=O)cc-3oc3cc(O)ccc23)c1; test: cells, lysate or membranes; details: pH 7.2
[2] = other: HEK-OAT3, 6-CF 0–500 μM, 10 min
[3] = other: HEK-OAT1, 6-CF 0–500 μM, 4 min

- 6-CF uptake, saturation curve (replicates) (hOAT1; HEK-OAT1, 6-CF 0.4882813 uM): 7.173 and 7.446 and 6.987
- 6-CF uptake, saturation curve (replicates) (hOAT1; HEK-OAT1, 6-CF 0.9765625 uM): 12.8274 and 13.23 and 13
- 6-CF uptake, saturation curve (replicates) (hOAT1; HEK-OAT1, 6-CF 1.953125 uM): 27.87 and 28.3406 and 28.05
- 6-CF uptake, saturation curve (replicates) (hOAT1; HEK-OAT1, 6-CF 3.90625 uM): 46.16 and 53.71 and 47.47
- 6-CF uptake, saturation curve (replicates) (hOAT1; HEK-OAT1, 6-CF 7.8125 uM): 70.1 and 79.19 and 68.4603
- 6-CF uptake, saturation curve (replicates) (hOAT1; HEK-OAT1, 6-CF 15.625 uM): 99.74 and 104.681 and 93.41
- 6-CF uptake, saturation curve (replicates) (hOAT1; HEK-OAT1, 6-CF 31.25 uM): 121.9009 and 125.5377 and 115.7964
- 6-CF uptake, saturation curve (replicates) (hOAT1; HEK-OAT1, 6-CF 62.5 uM): 137.2491 and 143.8246 and 138.2214
- 6-CF uptake, saturation curve (replicates) (hOAT1; HEK-OAT1, 6-CF 125 uM): 148.3736 and 150.9828 and 144.0527
- 6-CF uptake, saturation curve (replicates) (hOAT1; HEK-OAT1, 6-CF 250 uM): 164.0673 and 159.2171 and 152.7382
- 6-CF uptake, saturation curve (replicates) (hOAT1; HEK-OAT1, 6-CF 500 uM): 180.965 and 184.434 and 169.8854
- 6-CF uptake, time course (replicates) (hOAT1; HEK-OAT1, 1 min): 103.0408 and 111.2811 and 116.9642
- 6-CF uptake, time course (replicates) (hOAT1; HEK-OAT1, 2 min): 184.2101 and 188.6327 and 203.3025
- 6-CF uptake, time course (replicates) (hOAT1; HEK-OAT1, 4 min): 263.4748 and 273.8167 and 274.8526
- 6-CF uptake, time course (replicates) (hOAT1; HEK-OAT1, 6 min): 366.3584 and 347.2089 and 351.4604
- 6-CF uptake, time course (replicates) (hOAT1; HEK-OAT1, 8 min): 433.3665 and 398.0952 and 430.7222
- 6-CF uptake, time course (replicates) (hOAT1; HEK-OAT1, 10 min): 468.8556 and 433.6342 and 503.1246
- 6-CF uptake, time course (replicates) (hOAT1; HEK-OAT1, 15 min): 515.439 and 498.8523
- 6-CF uptake, time course (replicates) (hOAT3; HEK-OAT3, 0 min): -0.2934 and -0.3139 and -0.3557
- 6-CF uptake, saturation curve (replicates) (hOAT3; HEK-OAT3, 6-CF 0.4882813 uM): 0.3918 and 0.3329 and 0.4388
- 6-CF uptake, saturation curve (replicates) (hOAT3; HEK-OAT3, 6-CF 0.9765625 uM): 0.698 and 0.5037 and 0.6877
- 6-CF uptake, saturation curve (replicates) (hOAT3; HEK-OAT3, 6-CF 1.953125 uM): 1.795 and 1.575 and 1.458
- 6-CF uptake, saturation curve (replicates) (hOAT3; HEK-OAT3, 6-CF 3.90625 uM): 4.35 and 4.472 and 4.585
- 6-CF uptake, saturation curve (replicates) (hOAT3; HEK-OAT3, 6-CF 7.8125 uM): 6.975 and 7.312 and 7.453
- 6-CF uptake, saturation curve (replicates) (hOAT3; HEK-OAT3, 6-CF 15.625 uM): 11.68 and 13.8 and 13.42
- 6-CF uptake, saturation curve (replicates) (hOAT3; HEK-OAT3, 6-CF 31.25 uM): 16.87 and 19.83 and 17.42
- 6-CF uptake, saturation curve (replicates) (hOAT3; HEK-OAT3, 6-CF 62.5 uM): 24.87 and 28.11 and 27.05
- 6-CF uptake, saturation curve (replicates) (hOAT3; HEK-OAT3, 6-CF 125 uM): 31.12 and 34.21 and 34.22
- 6-CF uptake, saturation curve (replicates) (hOAT3; HEK-OAT3, 6-CF 250 uM): 38.59 and 48.68 and 49.93
- 6-CF uptake, saturation curve (replicates) (hOAT3; HEK-OAT3, 6-CF 500 uM): 59.67 and 68.36 and 60.32
- 6-CF uptake, time course (replicates) (hOAT3; HEK-OAT3, 1 min): 15.96 and 14.63 and 12.89
- 6-CF uptake, time course (replicates) (hOAT3; HEK-OAT3, 3 min): 23.66 and 23.83 and 22.4238
- 6-CF uptake, time course (replicates) (hOAT3; HEK-OAT3, 5 min): 30.9 and 31.16 and 28.05
- 6-CF uptake, time course (replicates) (hOAT3; HEK-OAT3, 7 min): 39.99 and 36.19 and 41.91
- 6-CF uptake, time course (replicates) (hOAT3; HEK-OAT3, 10 min): 50.24 and 52.458 and 60.541
- 6-CF uptake, time course (replicates) (hOAT3; HEK-OAT3, 15 min): 52.72 and 56.05 and 66.23
- 6-CF uptake, time course (replicates) (hOAT3; HEK-OAT3, 20 min): 78 and 76.09 and 111.922
Molecule: O=C(O)c1ccc(C(=O)O)c(-c2c3ccc(=O)cc-3oc3cc(O)ccc23)c1 [6-CF, 6-Carboxyfluorescein]
- 6-CF uptake, time course (replicates) (HEK-EV cells; EV (run with HEK-OAT3), 0 min): -0.296 and -0.1638 and -0.3041
- 6-CF uptake, time course (replicates) (HEK-EV cells; EV (run with HEK-OAT3), 1 min): 0.1864 and 0.1215 and 0.1926
- 6-CF uptake, time course (replicates) (HEK-EV cells; EV (run with HEK-OAT3), 3 min): 1.062 and 1.738 and 0.6624
- 6-CF uptake, time course (replicates) (HEK-EV cells; EV (run with HEK-OAT3), 5 min): 1.6 and 1.946 and 1.9
- 6-CF uptake, time course (replicates) (HEK-EV cells; EV (run with HEK-OAT3), 7 min): 3.081 and 4.38 and 4.257
- 6-CF uptake, time course (replicates) (HEK-EV cells; EV (run with HEK-OAT3), 10 min): 12.29 and 7.712 and 11.67
- 6-CF uptake, time course (replicates) (HEK-EV cells; EV (run with HEK-OAT3), 15 min): 22.75 and 12.81 and 21.0992
- 6-CF uptake, time course (replicates) (HEK-EV cells; EV (run with HEK-OAT3), 20 min): 40.6 and 70.13 and 42.87
- 6-CF uptake, time course (replicates) (HEK-EV cells; HEK-EV (run with HEK-OAT1), 1 min): 2.029 and 2.127 and 1.449
- 6-CF uptake, time course (replicates) (HEK-EV cells; HEK-EV (run with HEK-OAT1), 2 min): 3.517 and 2.496
- 6-CF uptake, time course (replicates) (HEK-EV cells; HEK-EV (run with HEK-OAT1), 4 min): 3.274 and 1.899
- 6-CF uptake, time course (replicates) (HEK-EV cells; HEK-EV (run with HEK-OAT1), 6 min): 2.9 and 5.179 and 2.231
- 6-CF uptake, time course (replicates) (HEK-EV cells; HEK-EV (run with HEK-OAT1), 8 min): 2.807 and 2.226 and 2.134
- 6-CF uptake, time course (replicates) (HEK-EV cells; HEK-EV (run with HEK-OAT1), 10 min): 6.849 and 3.392
- 6-CF uptake, time course (replicates) (HEK-EV cells; HEK-EV (run with HEK-OAT1), 15 min): 2.156 and 2.367 and 2.88

B1: hOAT3 (Homo sapiens) (protein)
chain: MTFSEILDRVGSMGHFQFLHVAILGLPILNMANHNLLQIFTAATPVHHCRPPHNASTGPWVLPMGPNGKPERCLRFVHPPNASLPNDTQRAMEPCLDGWVYNSTKDSIVTEWDLVCNSNKLKEMAQSIFMAGILIGGLVLGDLSDRFGRRPILTCSYLLLAASGSGAAFSPTFPIYMVFRFLCGFGISGITLSTVILNVEWVPTRMRAIMSTALGYCYTFGQFILPGLAYAIPQWRWLQLTVSIPFFVFFLSSWWTPESIRWLVLSGKSSKALKILRRVAVFNGKKEEGERLSLEELKLNLQKEISLAKAKYTASDLFRIPMLRRMTFCLSLAWFATGFAYYSLAMGVEEFGVNLYILQIIFGGVDVPAKFITILSLSYLGRHTTQAAALLLAGGAILALTFVPLDLQTVRTVLAVFGKGCLSSSFSCLFLYTSELYPTVIRQTGMGVSNLWTRVGSMVSPLVKITGEVQPFIPNIIYGITALLGGSAALFLPETLNQPLPETIEDLENWSLRAKKPKQEPEVEKASQRIPLQPHGPGLGSS
- Km [1, 2]: 112.9 ± 14.24 µM
- Vmax [1, 2]: 71.89 ± 3.42 pmol/mg protein/min

B2: hOAT1 (Homo sapiens) (protein)
chain: MAFNDLLQQVGGVGRFQQIQVTLVVLPLLLMASHNTLQNFTAAIPTHHCRPPADANLSKNGGLEVWLPRDRQGQPESCLRFTSPQWGLPFLNGTEANGTGATEPCTDGWIYDNSTFPSTIVTEWDLVCSHRALRQLAQSLYMVGVLLGAMVFGYLADRLGRRKVLILNYLQTAVSGTCAAFAPNFPIYCAFRLLSGMALAGISLNCMTLNVEWMPIHTRACVGTLIGYVYSLGQFLLAGVAYAVPHWRHLQLLVSAPFFAFFIYSWFFIESARWHSSSGRLDLTLRALQRVARINGKREEGAKLSMEVLRASLQKELTMGKGQASAMELLRCPTLRHLFLCLSMLWFATSFAYYGLVMDLQGFGVSIYLIQVIFGAVDLPAKLVGFLVINSLGRRPAQMAALLLAGICILLNGVIPQDQSIVRTSLAVLGKGCLAASFNCIFLYTGELYPTMIRQTGMGMGSTMARVGSIVSPLVSMTAELYPSMPLFIYGAVPVAASAVTVLLPETLGQPLPDTVQDLESRWAPTQKEAGIYPRKGKQTRQQQEHQKYMVPLQASAQEKNGL
- Km [1, 3]: 10.86 ± 0.64 µM
- Vmax [1, 3]: 168.5 ± 2.27 pmol/mg protein/min
